According to patent US12247010B2, “Tubulin inhibitors” (LIN BIOSCIENCE PTY LTD., priority 2017, dated 2025):

Tested on: U87MG cells
Assay: Cytotoxicity assay (cell viability, CellTiter 96 Aqueous MTS)
Type: cell-based
Conditions: Homo sapiens, U-87 MG, 72 h, 72 hours incubation, starting concentration 50 uM, 9 point half log dilution, average where tested repeatedly
Method: Example 3: Cytotoxicity Assay
U87MG cells were plated at a density of 7×10^3 cells/well and allowed to seed overnight. Cells were then treated with compounds from Table 1 or CMPD-1 (4-(2′-fluoro-[1,1′-biphenyl]-4-yl)-N-(4-hydroxyphenyl)butanamide as a positive control) were added to cells at a starting concentration of 50 uM, with a 9 point half log dilution, and incubated for 72 hours prior to viability determination. IC50 values were calculated from cell viability as measured using the CellTiter 96® Aqueous MTS reagent from Promega©, and the results are shown in Table 2.

SMILES | IC50
O=C(NCCCc1ccc(-c2ccccc2F)cc1)[C@H]1C[C@@H](O)C1 [Compound 77, (1s,3s)-N-(3-(2′-fluoro-[1,1′-biphenyl]-4-yl)propyl)-3-hydroxycyclobutane-1-carboxamide] | > 5 µM
O=C(NCCCc1ccc(-c2ccccc2F)cc1)c1ccc2cn[nH]c2c1 [Compound 79, N-(3-(2′-fluoro-[1,1′-biphenyl]-4-yl)propyl)-1H-indazole-6-carboxamide] | > 5 µM
Cc1cncc(C(=O)NCCCc2ccc(-c3ccccc3F)cc2)c1 [Compound 80, N-(3-(2′-fluoro-[1,1′-biphenyl]-4-yl)propyl)-5-methylnicotinamide] | 1 to 5 µM
O=C(NCCCc1ccc(-c2ccccc2F)cc1)C1=CN2C=CNC2C=C1 (stereo not shown) [Compound 82, N-(3-(2′-fluoro-[1,1′-biphenyl]-4-yl)propyl)-1,8a-dihydroimidazo[1,2-a]pyridine-6-carboxamide] | > 5 µM
O=C(NCCCc1ccc(-c2ccccc2F)cc1)c1ccc(C(F)(F)F)nc1 [Compound 83, N-(3-(2′-fluoro-[1,1′-biphenyl]-4-yl)propyl)-6-(trifluoromethyl)nicotinamide] | 1 to 5 µM
O=C(NCCCc1ccc(-c2ccccc2F)cc1)c1nc2ccccc2[nH]1 [Compound 84, N-(3-(2′-fluoro-[1,1′-biphenyl]-4-yl)propyl)-1H-benzo[d]imidazole-2-carboxamide] | > 5 µM
O=C(NCCCc1ccc(-c2ccccc2F)cc1)c1cncc(C(F)(F)F)c1 [Compound 85, N-(3-(2′-fluoro-[1,1′-biphenyl]-4-yl)propyl)-5-(trifluoromethyl)nicotinamide] | 1 to 5 µM
CN1CCC(C(=O)NCCCc2ccc(-c3ccccc3F)cc2)CC1 [Compound 87, N-(3-(2′-fluoro-[1,1′-biphenyl]-4-yl)propyl)-1-methylpiperidine-4-carboxamide] | > 5 µM
Cn1cnc(C(=O)NCCCc2ccc(-c3ccccc3F)cc2)c1 [Compound 88, N-(3-(2′-fluoro-[1,1′-biphenyl]-4-yl)propyl)-1-methyl-1H-imidazole-4-carboxamide] | > 5 µM
Cc1cc(C(=O)NCCCc2ccc(-c3ccccc3F)cc2)n(C)n1 [Compound 89, N-(3-(2′-fluoro-[1,1′-biphenyl]-4-yl)propyl)-1,3-dimethyl-1H-pyrazole-5-carboxamide] | < 0.5 µM
Cc1cc(C(=O)NCCCc2ccc(-c3ccccc3F)cc2)no1 [Compound 90, N-(3-(2′-fluoro-[1,1′-biphenyl]-4-yl)propyl)-5-methylisoxazole-3-carboxamide] | < 0.5 µM
O=C(NCCCc1ccc(-c2ccccc2F)cc1)c1ccc2c(c1)OCCO2 [Compound 91, N-(3-(2′-fluoro-[1,1′-biphenyl]-4-yl)propyl)-2,3-dihydrobenzo[b] [1,4]dioxine-6-carboxamide] | > 5 µM
Cn1cnc2cc(C(=O)NCCCc3ccc(-c4ccccc4F)cc3)cnc21 [Compound 95, N-(3-(2′-fluoro-[1,1′-biphenyl]-4-yl)propyl)-3-methyl-3H-imidazo[4,5-b]pyridine-6-carboxamide] | < 0.5 µM
Cc1ccc(C(=O)NCCCc2ccc(-c3ccccc3F)cc2)c(C)n1 [Compound 99, N-(3-(2′-fluoro-[1,1′-biphenyl]-4-yl)propyl)-2,6-dimethylnicotinamide] | 1 to 5 µM
Cc1nc2cc(C(=O)NCCCc3ccc(-c4ccccc4F)cc3)ccc2[nH]1 [Compound 100, N-(3-(2′-fluoro-[1,1′-biphenyl]-4-yl)propyl)-2-methyl-1H-benzo[d]imidazole-5-carboxamide] | > 5 µM
O=C(Cc1noc2ccccc12)NCCCc1ccc(-c2ccccc2F)cc1 [Compound 102, 2-(benzo[d]isoxazol-3-yl)-N-(3-(2′-fluoro-[1,1′-biphenyl]-4-yl)propyl)acetamide] | > 5 µM
Nc1ccc(C(=O)NCCCc2ccc(-c3ccccc3F)cc2)cn1 [Compound 105, 6-amino-N-(3-(2′-fluoro-[1,1′-biphenyl]-4-yl)propyl)nicotinamide] | < 0.5 µM
Cn1nccc1C(=O)NCCCc1ccc(-c2ccccc2F)cc1 [Compound 106, N-(3-(2′-fluoro-[1,1′-biphenyl]-4-yl)propyl)-1-methyl-1H-pyrazole-5-carboxamide] | 0.501 to 1 µM
O=C(NCCCc1ccc(-c2ccccc2F)cc1)C(F)(F)c1ccccc1 [Compound 108, 2,2-difluoro-N-(3-(2′-fluoro-[1,1′-biphenyl]-4-yl)propyl)-2-phenylacetamide] | < 0.5 µM
CCn1nc(C)cc1C(=O)NCCCc1ccc(-c2ccccc2F)cc1 [Compound 109, 1-ethyl-N-(3-(2′-fluoro-[1,1′-biphenyl]-4-yl)propyl)-3-methyl-1H-pyrazole-5-carboxamide] | 0.501 to 1 µM
COc1ccc(CC(=O)NCCCc2ccc(-c3ccccc3F)cc2)cc1OC [Compound 110, 2-(3,4-dimethoxyphenyl)-N-(3-(2′-fluoro-[1,1′-biphenyl]-4-yl)propyl)acetamide] | > 5 µM
O=C(NCCCc1ccc(-c2ccccc2F)cc1)c1ccno1 [Compound 111, N-(3-(2′-fluoro-[1,1′-biphenyl]-4-yl)propyl)isoxazole-5-carboxamide] | > 5 µM

SMILES | IC50
CCOc1ccc(CC(=O)NCCCc2ccc(-c3ccccc3F)cc2)cc1 [Compound 112, 2-(4-ethoxyphenyl)-N-(3-(2′-fluoro-[1,1′-biphenyl]-4-yl)propyl)acetamide] | 1 to 5 µM
O=C(NCCCc1ccc(-c2ccccc2F)cc1)c1cc[nH]n1 [Compound 113, N-(3-(2′-fluoro-[1,1′-biphenyl]-4-yl)propyl)-1H-pyrazole-3-carboxamide] | > 5 µM
COc1ccc(CC(=O)NCCCc2ccc(-c3ccccc3F)cc2)c(OC)c1 [Compound 114, 2-(2,4-dimethoxyphenyl)-N-(3-(2′-fluoro-[1,1′-biphenyl]-4-yl)propyl)acetamide] | > 5 µM
O=C(NCCCc1ccc(-c2ccccc2F)cc1)c1c[nH]c2ccccc12 [Compound 117, N-(3-(2′-fluoro-[1,1′-biphenyl]-4-yl)propyl)-1H-indole-3-carboxamide] | > 5 µM
O=C(NCCCc1ccc(-c2ccccc2F)cc1)c1cc[nH]c1 [Compound 118, N-(3-(2′-fluoro-[1,1′-biphenyl]-4-yl)propyl)-1H-pyrrole-3-carboxamide] | > 5 µM
O=C(Cc1ccc(OC(F)(F)F)cc1)NCCCc1ccc(-c2ccccc2F)cc1 [Compound 120, N-(3-(2′-fluoro-[1,1′-biphenyl]-4-yl)propyl)-2-(4-(trifluoromethoxy)phenyl)acetamide] | 0.501 to 1 µM
CC(=O)Nc1ccc(C(=O)NCCCc2ccc(-c3ccccc3F)cc2)cn1 [Compound 121, 6-acetamido-N-(3-(2′-fluoro-[1,1′-biphenyl]-4-yl)propyl)nicotinamide] | 1 to 5 µM
O=C(NCCCc1ccc(-c2ccccc2F)cc1)c1ccc2nccnc2c1 [Compound 123, N-(3-(2′-fluoro-[1,1′-biphenyl]-4-yl)propyl)quinoxaline-6-carboxamide] | > 5 µM
O=C(Cn1ccnc1)NCCCc1ccc(-c2ccccc2F)cc1 [Compound 124, N-(3-(2′-fluoro-[1,1′-biphenyl]-4-yl)propyl)-2-(1H-imidazol-1-yl)acetamide] | > 5 µM
Cc1cc(C(=O)NCCCc2ccc(-c3ccccc3F)cc2)nn1C [Compound 125, N-(3-(2′-fluoro-[1,1′-biphenyl]-4-yl)propyl)-1,5-dimethyl-1H-pyrazole-3-carboxamide] | > 5 µM
COc1ccc(CC(=O)NCCCc2ccc(-c3ccccc3F)cc2)cc1F [Compound 126, 2-(3-fluoro-4-methoxyphenyl)-N-(3-(2′-fluoro-[1,1′-biphenyl]-4-yl)propyl)acetamide] | 1 to 5 µM
Cc1cc(C(=O)NCCCc2ccc(-c3ccccc3F)cc2)cc(C)c1O [Compound 127, N-(3-(2′-fluoro-[1,1′-biphenyl]-4-yl)propyl)-4-hydroxy-3,5-dimethylbenzamide] | > 5 µM
Cc1cc(C(=O)NCCCc2ccc(-c3ccccc3F)cc2)on1 [Compound 128, N-(3-(2′-fluoro-[1,1′-biphenyl]-4-yl)propyl)-3-methylisoxazole-5-carboxamide] | 0.501 to 1 µM
Cn1cncc1C(=O)NCCCc1ccc(-c2ccccc2F)cc1 [Compound 130, N-(3-(2′-fluoro-[1,1′-biphenyl]-4-yl)propyl)-1-methyl-1H-imidazole-5-carboxamide] | > 5 µM
O=C(NCCCc1ccc(-c2ccccc2F)cc1)c1cnco1 [Compound 131, N-(3-(2′-fluoro-[1,1′-biphenyl]-4-yl)propyl)oxazole-5-carboxamide] | > 5 µM
Cc1cnc(C(=O)NCCCc2ccc(-c3ccccc3F)cc2)s1 [Compound 132, N-(3-(2′-fluoro-[1,1′-biphenyl]-4-yl)propyl)-5-methylthiazole-2-carboxamide] | > 5 µM
Cc1nn(C)cc1C(=O)NCCCc1ccc(-c2ccccc2F)cc1 [Compound 133, N-(3-(2′-fluoro-[1,1′-biphenyl]-4-yl)propyl)-1,3-dimethyl-1H-pyrazole-4-carboxamide] | > 5 µM
O=C(NCCCc1ccc(-c2ccccc2F)cc1)c1ccc[nH]1 [Compound 134, N-(3-(2′-fluoro-[1,1′-biphenyl]-4-yl)propyl)-1H-pyrrole-2-carboxamide] | 1 to 5 µM
O=C(NCCCc1ccc(-c2ccccc2F)cc1)c1cnc2ccccn12 [Compound 137, N-(3-(2′-fluoro-[1,1′-biphenyl]-4-yl)propyl)imidazo[1,2-a]pyridine-3-carboxamide] | 1 to 5 µM
Cc1cc(C(=O)NCCCc2ccc(-c3ccccc3F)cc2)[nH]n1 [Compound 139, N-(3-(2′-fluoro-[1,1′-biphenyl]-4-yl)propyl)-3-methyl-1H-pyrazole-5-carboxamide] | 0.501 to 1 µM
Cc1ccc(CC(=O)NCCCc2ccc(-c3ccccc3F)cc2)cc1 [Compound 140, N-(3-(2′-fluoro-[1,1′-biphenyl]-4-yl)propyl)-2-(p-tolyl)acetamide] | < 0.5 µM
